Earlier results as cited in PubChem BioAssay AID1259409 (Chemical Carcinogenesis Research Information System (CCRIS), 2018).
“And” between values parts separate entries of the source, which are not always exact repeats. Identical values can stand only once.

System: rodent chemically induced tumor inhibition, incidence and multiplicity
Experiment: CCRIS tumor inhibitor studies

CC(C)Cc1ccc(C(C)C(=O)O)cc1 (stereo not drawn)
tumour outcome (control, treated, inhibition, significance) (Carcinogen: 4-(METHYLNITROSAMINO)-1-(3-PYRIDYL-1-BUTANONE, 64091-91-4, Dose [Inhibitor]: 0, 263 MG/KG IN DIET FOR 25 WK BEGINNING 2 WK PRIOR TO CARCINOGEN TREATMENT (STUDY DURATION: 25 WK), Route [Inhibitor]: ORAL, Species: MOUSE, Strain/Sex: STRAIN-A/FEMALE, Target Tissue: Type of Lesion: FORESTOMACH: TUMOR, Dose [Carcinogen]: 9.1 MG IN DRINKING WATER FOR 7 WK, Promoter: NONE USED): 7/25 (28%), 0/25 (0%), 100%, p<0.01
tumour outcome (control, treated, inhibition, significance) (Carcinogen: AZOXYMETHANE, 25843-45-2, Dose [Inhibitor]: 0, 400 PPM IN DIET BEGINNING 1 WK PRIOR TO CARCINOGEN TREATMENT FOR DURATION OF STUDY (STUDY DURATION: 54 WK), Route [Inhibitor]: ORAL, Species: RAT, Strain/Sex: F344/MALE, Target Tissue: Type of Lesion: COLON: ADENOCARCINOMA, Dose [Carcinogen]: 15 MG/KG/BW 1/WK FOR 2 WK, Promoter: NONE USED): 58%, 33%, 43%, p<0.05
tumour outcome (control, treated, inhibition, significance) (Carcinogen: AZOXYMETHANE, 25843-45-2, Dose [Inhibitor]: 0, 200 PPM IN DIET BEGINNING 1 WK PRIOR TO CARCINOGEN TREATMENT FOR DURATION OF STUDY (STUDY DURATION: 54 WK), Route [Inhibitor]: ORAL, Species: RAT, Strain/Sex: F344/MALE, Target Tissue: Type of Lesion: COLON: ADENOCARCINOMA, Dose [Carcinogen]: 15 MG/KG/BW 1/WK FOR 2 WK, Promoter: NONE USED): 58%, 41%, 29%, not calculated
tumour outcome (control, treated, inhibition, significance) (Carcinogen: AZOXYMETHANE, 25843-45-2, Dose [Inhibitor]: 0, 200 PPM IN DIET BEGINNING 1 WK PRIOR TO CARCINOGEN TREATMENT FOR DURATION OF STUDY (STUDY DURATION: 54 WK), Route [Inhibitor]: ORAL, Species: RAT, Strain/Sex: F344/MALE, Target Tissue: Type of Lesion: COLON: ADENOMA, Dose [Carcinogen]: 15 MG/KG/BW 1/WK FOR 2 WK, Promoter: NONE USED): 6%, 6%, 0%, not calculated
outcome (Carcinogen: AZOXYMETHANE, 25843-45-2, Dose [Inhibitor]: 0, 400 PPM IN DIET BEGINNING 1 WK PRIOR TO CARCINOGEN TREATMENT FOR DURATION OF STUDY (STUDY DURATION: 54 WK), Route [Inhibitor]: ORAL, Species: RAT, Strain/Sex: F344/MALE, Target Tissue: Type of Lesion: COLON: ADENOMA, Dose [Carcinogen]: 15 MG/KG/BW 1/WK FOR 2 WK, Promoter: NONE USED): 6%, 0,%, 100%, not calculated

CC(C)(C)c1cc(C(C)(C)C)c(O)c(C(C)(C)C)c1
tumour outcome (control, treated, inhibition, significance) (Carcinogen: BENZO[A]PYRENE, 50-32-8, Dose [Inhibitor]: 0.03 MMOL/G OF DIET DAILY STARTING 7 D BEFORE AND CONTINUING THROUGH 3 D AFTER CARCINOGEN TREATMENT FOLLOWED BY OBSERVAT, Route [Inhibitor]: ORAL, Species: MOUSE, Strain/Sex: ICR/FEMALE, Target Tissue: Type of Lesion: FORESTOMACH: NEOPLASM, Dose [Carcinogen]: 1 MG IN 0.2 ML CORN OIL 2/WK FOR 4 WK, Promoter: NONE USED): 100%, 93%, 7%, not significant

CCNC(=O)/C=C(C)/C=C/C=C(C)/C=C/c1c(C)cc(OC)c(C)c1C
tumour outcome (control, treated, inhibition, significance) (Carcinogen: N,N-DIMETHYLNITROSAMINE, 62-75-9, Dose [Inhibitor]: 60 MG/KG OF DIET DAILY FOR 26 WK STARTING 2 D AFTER CARCINOGEN TREATMENT AT 6 WK OF AGE AND THEN OBSERVED UNTIL DEATH (S, Route [Inhibitor]: ORAL, Species: RAT, Strain/Sex: WISTAR/FEMALE, Target Tissue: Type of Lesion: KIDNEY: EPITHELIAL TUMOR, Dose [Carcinogen]: 40 MG/KG BW ONCE, Promoter: NONE USED): 13/27 (48%), 21/35 (60%), -25%, not significant
tumour outcome (control, treated, inhibition, significance) (Carcinogen: N,N-DIMETHYLNITROSAMINE, 62-75-9, Dose [Inhibitor]: 60 MG/KG OF DIET DAILY FOR 26 WK STARTING 2 D AFTER CARCINOGEN TREATMENT AT 6 WK OF AGE AND THEN OBSERVED UNTIL DEATH (S, Route [Inhibitor]: ORAL, Species: RAT, Strain/Sex: WISTAR/FEMALE, Target Tissue: Type of Lesion: KIDNEY: MESENCHYMAL TUMOR, Dose [Carcinogen]: 40 MG/KG BW ONCE, Promoter: NONE USED): 22/27 (82%), 26/35 (74%), 10%, not significant
tumour outcome (control, treated, inhibition, significance) (Carcinogen: N-METHYL-N-NITROSOUREA, 684-93-5, Dose [Inhibitor]: 60 MG/KG OF DIET DAILY STARTING 5 D AFTER FINAL INSTILLATION OF CARCINOGEN AND CONTINUING THROUGH END OF STUDY (STUDY DU, Route [Inhibitor]: ORAL, Species: RAT, Strain/Sex: F344/MALE, Target Tissue: Type of Lesion: COLON: INVASIVE TUBULOPAPILLARY ADENOCARCINOMA, Dose [Carcinogen]: 0.5 MG 2/WK FOR 8 WK, Promoter: NONE USED): 33%, 19%, 42%, not significant
tumour outcome (control, treated, inhibition, significance) (Carcinogen: N-METHYL-N-NITROSOUREA, 684-93-5, Dose [Inhibitor]: 60 MG/KG OF DIET DAILY STARTING 5 D AFTER FINAL INSTILLATION OF CARCINOGEN AND CONTINUING THROUGH END OF STUDY (STUDY DU, Route [Inhibitor]: ORAL, Species: RAT, Strain/Sex: F344/MALE, Target Tissue: Type of Lesion: COLON: INVASIVE TUBULOPAPILLARY ADENOCARCINOMA, Dose [Carcinogen]: 1 MG 2/WK FOR 8 WK, Promoter: NONE USED): 80%, 85%, -6%, not significant
tumour outcome (control, treated, inhibition, significance) (Carcinogen: N-METHYL-N-NITROSOUREA, 684-93-5, Dose [Inhibitor]: 60 MG/KG OF DIET DAILY STARTING 5 D AFTER FINAL INSTILLATION OF CARCINOGEN AND CONTINUING THROUGH END OF STUDY (STUDY DU, Route [Inhibitor]: ORAL, Species: RAT, Strain/Sex: F344/MALE, Target Tissue: Type of Lesion: COLON: INVASIVE TUBULOPAPILLARY ADENOCARCINOMA, Dose [Carcinogen]: 2 MG 2/WK FOR 8 WK, Promoter: NONE USED): 95%, 100%, -5%, not significant

C=C1CC[C@H]2[C@](C)(COC(=O)[C@@H](CC(=O)O)[C@@H](OC[C@H]3C(=C)CC[C@H]4[C@](C)(CO)CCC[C@]34C)C(=O)OC)CCC[C@]2(C)[C@H]1CO[C@@H](C(=O)OC)[C@H](CC(=O)O)C(=O)OC
tumour outcome (control, treated, inhibition, significance) (Carcinogen: 1,2-DIMETHYLHYDRAZINE DIHYDROCHLORIDE, 306-37-6, Dose [Inhibitor]: 0: 0.06% IN DIET FOR DURATION OF STUDY (STUDY DURATION: 25 WK), Route [Inhibitor]: ORAL, Species: MOUSE, Strain/Sex: ICR/FEMALE, Target Tissue: Type of Lesion: COLON: TUMOR, Dose [Carcinogen]: 10 MG/KG BW IN 0.9% SALINE 1/WK FOR 15 WK, Promoter: NONE USED): 10/16 (63%), 5/16 (31%), 51%, not significant
tumour outcome (control, treated, inhibition, significance) (Carcinogen: 7,12-DIMETHYLBENZ[A]ANTHRACENE, 57-97-6, Dose [Inhibitor]: 0, 1 MG 2/WK FOR 20 WK APPLIED 10 MIN PRIOR TO EACH PROMOTER DOSE (STUDY DURATION: 20 WK), Route [Inhibitor]: DERMAL, Species: MOUSE, Strain/Sex: CD-1/FEMALE, Target Tissue: Type of Lesion: SKIN: TUMOR, Dose [Carcinogen]: 100 UG ONCE, Promoter: OKADAIC ACID, 78111-17-8): 73%, 53%, 27%, not calculated
tumour outcome (control, treated, inhibition, significance) (Carcinogen: 7,12-DIMETHYLBENZ[A]ANTHRACENE, 57-97-6, Dose [Inhibitor]: 0, 5 MG 2/WK FOR 20 WK APPLIED 10 MIN PRIOR TO EACH PROMOTER DOSE (STUDY DURATION: 20 WK), Route [Inhibitor]: DERMAL, Species: MOUSE, Strain/Sex: CD-1/FEMALE, Target Tissue: Type of Lesion: SKIN: TUMOR, Dose [Carcinogen]: 100 UG ONCE, Promoter: OKADAIC ACID, 78111-17-8): 73%, 20%, 73%, not calculated
tumour outcome (control, treated, inhibition, significance) (Carcinogen: N-METHYL-N-NITROSOUREA, 684-93-5, Dose [Inhibitor]: 0, 0.2% IN DIET FOR 33 WK BEGINNING POST CARCINOGEN TREATMENT (STUDY DURATION: 35 WK), Route [Inhibitor]: ORAL, Species: RAT, Strain/Sex: F344/FEMALE, Target Tissue: Type of Lesion: COLON: TUMOR, Dose [Carcinogen]: 2 MG 3/WK FOR 2 WK, Promoter: NONE USED): 12/16 (75%), 5/16 (31%), 57%, p<0.05

COc1ccc2c(c1)CCC(c1ccccc1)=C2c1ccc(OCCN2CCCC2)cc1
tumour outcome (control, treated, inhibition, significance) (Carcinogen: 7,12-DIMETHYLBENZ[A]ANTHRACENE, 57-97-6, Dose [Inhibitor]: 1 MG/KG 3/WK BEGINNING 2 D AFTER DMBA TREATMENT (STUDY DURATION: 5 MO), Route [Inhibitor]: SUBCUTANEOUS, Species: RAT, Strain/Sex: SPRAGUE-DAWLEY/FEMALE, Target Tissue: Type of Lesion: MAMMARY GLAND: ADENOCARCINOMA, FIBROADENOMA, Dose [Carcinogen]: 5 MG IN 0.5 ML CORN OIL AT 50 D OF AGE, Promoter: NONE USED): 56%, 10%, 82%, not calculated and 34%, 1%, 97%, not calculated
tumour outcome (control, treated, inhibition, significance) (Carcinogen: 7,12-DIMETHYLBENZ[A]ANTHRACENE, 57-97-6, Dose [Inhibitor]: 1 MG/KG 3/WK BEGINNING 2 D AFTER DMBA TREATMENT (STUDY DURATION: 5 MO), Route [Inhibitor]: SUBCUTANEOUS, Species: RAT, Strain/Sex: SPRAGUE-DAWLEY/FEMALE, Target Tissue: Type of Lesion: MAMMARY GLAND: ADENOCARCINOMA, FIBROADENOMA, Dose [Carcinogen]: 10 MG IN 0.5 ML CORN OIL AT 50 D OF AGE, Promoter: NONE USED): 58%, 27%, 53%, not calculated and 38%, 10%, 74%, not calculated
tumour outcome (control, treated, inhibition, significance) (Carcinogen: 7,12-DIMETHYLBENZ[A]ANTHRACENE, 57-97-6, Dose [Inhibitor]: 1 MG/KG 3/WK BEGINNING 15 D AFTER DMBA TREATMENT (STUDY DURATION: 5 MO), Route [Inhibitor]: SUBCUTANEOUS, Species: RAT, Strain/Sex: SPRAGUE-DAWLEY/FEMALE, Target Tissue: Type of Lesion: MAMMARY GLAND: ADENOCARCINOMA, FIBROADENOMA, Dose [Carcinogen]: 5 MG IN 0.5 ML CORN OIL AT 50 D OF AGE, Promoter: NONE USED): 56%, 22%, 61%, not calculated and 34%, 5%, 85%, not calculated
